US20110251128A1, “THYMOSIN Beta4 PEPTIDES PROMOTE TISSUE REGENERATION” (The Board of Regents of the University of Texas System, priority 2010, published 2011)
Entries after “also recorded” stand apart in the source; their conditions may differ. Like-named read-outs stand apart in the source and are kept apart here. Residues, ends and D or L forms follow the SMILES beside them. No end group written: not given here.

Columns and labels:
[1] = test system: C57BL/6J male mice after coronary ligation; assay: Myocardial infarction by LAD coronary ligation in adult mice: echocardiography, scar volume, myocyte size; format: in vivo, mouse; conditions: for side effects: mouse model; for post-ischemic cardiac function, in words: adult mice after coronary ligation
From the text: (§1) Animals and Surgical procedures. Mice: Myocardial infarctions were produced in seventy C57BL/6J male mice at 16 weeks of age (25-30 g) by ligation of the left anterior descending (LAD) coronary artery as described (Garner et al., 2003). All animal protocols were reviewed and approved by the University of Texas Southwestern Medical School Institutional Animal Care Advisory Committee and were in compliance with the rules governing animal use as published by the NIH. Mice were sedated in an isoflurane chamber (5%) for 60 seconds until self-designed coaxial mask could be safely applied. The mask supplied continuous isoflurane (2.0%) and oxygen (98.0%) under positive pressure from a Harvard small animal respirator throughout the procedures. Immediately after ligation mice were injected with 200 ng of peptide in […] or […] PBS in collagen intracardially in the infarction border, and with […] PBS intraperitoneally as described (Bock-Marquette et al., 2004). Intraperitoneal injections were repeated every three days after ligation. Effective doses of the peptides were calculated based on optimal in vitro cell migration effect and on biodistribution calculations of full length TB4 (Mora et al., 1997). The inventors administered buprenorphine (0.05 mg/kg) for post-operative pain control. Hearts were removed 1, 14 and 21 days after ligation and processed for further investigations.
Analysis of cardiac function by echocardiography: Echocardiograms to assess systolic function were performed using M-mode and 2-dimensional measurements as described previously (Garner et al., 2003). The measurements represented the average of six selected cardiac cycles from at least two separate scans performed in random-blind fashion with papillary muscles used as a point of reference for consistency in level of scan. End diastole was defined as the maximal left ventricle (LV) diastolic dimension and end systole was defined as the peak of posterior wall motion. Single outliers in each group were omitted for statistical analysis. Fractional shortening (FS), a surrogate of systolic function, was calculated from LV dimensions as follows: FS=[(EDD−ESD)/EDD]×100%. Ejection fraction (EF) was calculated as follows: EF=[(edd^3−esd^3)/edd^3]×100%. EDD, end diastolic dimension; ESD, end systolic dimension.
Calculation of scar volume and myocyte size: Scar volume was calculated after Masson's trichrome staining in six sections through the heart of each mouse using Openlab 3.03 software (Improvision) similar to previously described (Bock-Marquette et al., 2004). Percent area of collagen deposition was measured on each section in blinded fashion and averaged for each mouse.

adult infarcted pigs = assay: Ischemia reperfusion (acute myocardial infarction) in pigs with retroinfusion of peptides; format: in vivo, pig; conditions: pig model
Method: Pigs: German pigs were purchased from the animal research department of the Ludwig-Maximilians-University (Oberschleissheim, Germany). Animal care and all experimental procedures were performed in accordance to the German and NIH animal legislation guidelines and were approved by the Bavarian Animal Care and Use Committee (AZ 55.2-1-54-2531-26/09). All animal experiments were conducted at the Walter Brendel Centre of Experimental Medicine, University of Munich.
Ischemia reperfusion experiments: Pigs (n=5/experimental group) were anesthetized and instrumented as described previously (Hinkel et al., 2008). Briefly, a balloon was placed in the left anterior descending artery (LAD) distal to the bifurcation of the first diagonal branch and inflated for 60 min. Correct localization of the coronary occlusion and patency of the first diagonal branch were ensured by injection fluoroscopy. Regional application of TB4 peptides or saline solution was performed via selective pressure regulated retroinfusion for 10 min into the anterior interventricular vein (AIV) draining the LAD-perfused myocardium (Kupatt et al., 2005).
Global myocardial function: At day 0 before ischemia induction and after 24 h of reperfusion myocardial function was obtained via Millar pressure tip catheter. Therefore the Millar pressure tip catheter was placed in the left ventricle and left ventricular pressure was recorded for off-line analysis.
Regional myocardial function: 24 hours after induction of ischemia, sternotomy was performed and ultrasonic crystals were placed subendocardial into the area at risk, the infracted area as well as into the Cx perfusion area in a standardized manner. Subendocardial segment shortening (SES) was assessed under resting heart rate as well as at 120 and 150 beats/min atrial pacing (for 1 min/each).
Infarct size and local inflammation: For assessment of infarct size methylene blue was injected in the left ventricle for negative staining of the AAR and tetrazolium red was applied into the LAD for viability staining in the infracted area. Thereafter, left ventricle was cut into slices (5 mm thick), and subjected to digital photography. Planimetry of different slices was conducted via ImageJ for assessment of infarct size in % of AAR. Tissue samples from infarct, area at risk and non-ischemic control were harvested for leukocyte recruitment. Myeloperoxidase assays were performed as previously described (Kupatt et al., 2005).

myocardial cells = assay: Beating frequency of myocardial cells in embryonic cardiac explants on collagen gel; format: cell-based, mouse; conditions: for frequency of myocardial beating: 300 ng peptide or 100 ng TB4, normalized to PBS and TB4 controls (TB4 = 100.00); for myocyte beating, effect in words: compared with full-length TB4 or other constructs
Method: (§2) In vitro embryonic cardiac cell migration assay. The outflow tract of the heart was dissected from E11.5 wild-type mouse embryos and placed on rat-tail collagen matrix (Roche) endothelial layer facing down as described (Bock-Marquette et al., 2004; Runyan and Markwald, 1983). After 10 h of attachment, three independent explants were incubated with 300 ng of peptide #1-17, 100 ng of TB4, or 3 μl PBS in […] OPTIMEM medium (Invitrogen/Gibco) respectively. Medium and protein were changed every two days. To monitor migration distance photos were taken daily using Nikon DXM1200F microscope at 4× magnification. Cell migration distance was quantified by ImageJ software (http at rsb.info.nih.gov/ij/) in three separate explants and three measurements for each treatment respectively. Beating frequency of myocardial cells was counted three times at 7-15 days of treatment. Calculations were normalized to PBS and TB4 treated positive and negative controls. After 15 days at 37° C. in 5% CO2, explants were fixed in 4% paraformaldehyde in PBS for 10 min at room temperature. Explants were stored at 4° C. in PBS for further immunocytochemical investigations.

[2] = test system: embryonic cardiac endothelial cells; assay: In vitro embryonic cardiac cell migration assay on collagen gel (outflow tract explants); format: cell-based, mouse; set-up: unit not given here; conditions: 300 ng peptide or 100 ng TB4 in medium; E11.5 outflow tract explants; results normalized to PBS control (TB4 = 100.00)
Method: as §2

[3] = Yang et al., 2004, cited from earlier work
[4] = test system: Wt-1 positive cardiac progenitors; assay: Immunohistochemistry, Wt-1 positive progenitor cells at infarction border; format: in vivo, mouse; conditions: infarction border, two weeks after injections (FIG. 11)
From the text: Animals and Surgical procedures. Mice: Myocardial infarctions were produced in seventy C57BL/6J male mice at 16 weeks of age (25-30 g) by ligation of the left anterior descending (LAD) coronary artery as described (Garner et al., 2003). All animal protocols were reviewed and approved by the University of Texas Southwestern Medical School Institutional Animal Care Advisory Committee and were in compliance with the rules governing animal use as published by the NIH. Mice were sedated in an isoflurane chamber (5%) for 60 seconds until self-designed coaxial mask could be safely applied. The mask supplied continuous isoflurane (2.0%) and oxygen (98.0%) under positive pressure from a Harvard small animal respirator throughout the procedures. […] Effective doses of the peptides were calculated based on optimal in vitro cell migration effect and on biodistribution calculations of full length TB4 (Mora et al., 1997). […]
Immunohistochemistry. Adult mouse cardiac tissue was fixed in 4% paraformaldehyde and sections were analyzed by immunohistochemistry. […] Number of sm a-actin positive capillaries and Wt-1 positive cells were counted at the infarction border zone in high power photographs at all levels of the sections in three peptide, TB4 and PBS treated hearts respectively.

mature coronary vessels = assay: Immunohistochemistry, smooth muscle α-actin positive vessels at infarction border zone; format: in vivo, mouse; conditions: two weeks after treatment, compared to PBS (FIG. 10)
From the text: as §1
Immunohistochemistry. Adult mouse cardiac tissue was fixed in 4% paraformaldehyde and sections were analyzed by immunohistochemistry. Hearts were sectioned at eight levels from the base to the apex. Serial sections were immunostained with primary antibodies against Pecam-1 and Wt-1 (1:50) (Santa Cruz), Smooth muscle a-actin (1:220) (Sigma), Sarcomeric a-actinin (1:200) (Sigma), Connexin43 (1:200) (Invitrogen), pS368-Connexin43 (1:200) (Cell Signaling Technology) as recommended by the manufacturer. Terminal deoxynucleotidyl transferase dUTP nick end labeling (TUNEL) assay was performed using In Situ Cell Detection kit (Roche). Number of sm a-actin positive capillaries and Wt-1 positive cells were counted at the infarction border zone in high power photographs at all levels of the sections in three peptide, TB4 and PBS treated hearts respectively.

Compound | frequency of myocardial beating (myocardial cells) | myocyte beating, effect in words (myocardial cells) | endothelial cell migration distance [2] | other results
C[C@H](N)C(=O)NCC(=O)N[C@@H](CCC(=O)O)C(=O)N[C@@H](CO)C(=O)O [#17, AGES] (H-AGES-OH) |  |  |  | side effects [1]: did not observe any major side effects; side effects (adult infarcted pigs): did not observe any major side effects
#2: acetylated N-terminal variable domain with addition of Met6 (Ac-SDKPDM-OH; UniProt P62328 2-7, looked up, fragment) | 10.65+/−1.15 beats/75 sec | inhibit myocyte beating in vitro |  | 
#4: de-acetylated form of the N-terminal variable domain (of #1) (SDKP; Thymosin beta-4; UniProt P62328 2-5, looked up, fragment) | 86.88+/−1.15 beats/75 sec |  | 154 | 
#5: de-acetylated form of the N-terminal variable domain with Met6 (of #2) (SDKPDM; Thymosin beta-4; UniProt P62328 2-7, looked up, fragment) | 66.39+/−3.46 beats/75 sec |  | 139 | 
Ac-SDKP (Ac-SDKP-OH; UniProt P62328 2-5, looked up, fragment) [#1, acetylated N-terminal variable domain of TB4] | 45.08+/−2.31 beats/75 sec | inhibit myocyte beating in vitro | 116 | fibrosis, inflammation and coronary vessel growth / angiogenesis [3]: highly angiogenic; post-ischemic cardiac (global) function [3]: did not affect post-ischemic cardiac function; also recorded: did not aid global function; fibrosis, inflammation and coronary vessel growth / angiogenesis ([3]; listed as Ac-SDKP): positive influence; post-ischemic cardiac (global) function ([3]; listed as Ac-SDKP): does not aid post-ischemic cardiac function
Ac-SDKPDMox [#3] | 17.21+/−1.00 beats/75 sec |  | 70.7 | Wt-1 positive progenitor cells [4]: fails to increase Wt-1 positive progenitor cells; number of mature coronary vessels (mature coronary vessels): fails to alter the number of mature coronary vessels; number of mature coronary vessels (mature coronary vessels; listed as Ac-SDKPDMox): did not initiate vessel growth; post-ischemic cardiac function, in words [1]: does not alter cardiac function; post-ischemic cardiac function, in words ([1]; listed as Ac-SDKPDMox): failed to aid cardiac function
LKKTET [#8] | 87.02+/−16.17 beats/75 sec | resembled myocyte fibrillation; also recorded: increases beating frequency | 13 | 
LKKTETQEKNPLPSKETIEQEKQAGES [#14] |  |  |  | side effects [1]: did not observe any major side effects; side effects (adult infarcted pigs): did not observe any major side effects
